Laboratory results taken from US5635514A, “Heteroaralkyl and heteroarylthioalkyl thiophenolic compounds as 5-lipoxgenase inhibitors” (G. D. Searle & Company, priority 1994, dated 1997).

Columns and labels:
[1] = molecular target: T1, Human recombinant 5-lipoxygenase (Homo sapiens, UniProt P09917); test: Recombinant 5-Lipoxygenase Inhibition Assay; type: biochemical; settings: 25° C., 8 minutes, absorbance at 240 nm
T1 construct: made in house; host or cells: E. coli
T1 sequence (P09917 1-674): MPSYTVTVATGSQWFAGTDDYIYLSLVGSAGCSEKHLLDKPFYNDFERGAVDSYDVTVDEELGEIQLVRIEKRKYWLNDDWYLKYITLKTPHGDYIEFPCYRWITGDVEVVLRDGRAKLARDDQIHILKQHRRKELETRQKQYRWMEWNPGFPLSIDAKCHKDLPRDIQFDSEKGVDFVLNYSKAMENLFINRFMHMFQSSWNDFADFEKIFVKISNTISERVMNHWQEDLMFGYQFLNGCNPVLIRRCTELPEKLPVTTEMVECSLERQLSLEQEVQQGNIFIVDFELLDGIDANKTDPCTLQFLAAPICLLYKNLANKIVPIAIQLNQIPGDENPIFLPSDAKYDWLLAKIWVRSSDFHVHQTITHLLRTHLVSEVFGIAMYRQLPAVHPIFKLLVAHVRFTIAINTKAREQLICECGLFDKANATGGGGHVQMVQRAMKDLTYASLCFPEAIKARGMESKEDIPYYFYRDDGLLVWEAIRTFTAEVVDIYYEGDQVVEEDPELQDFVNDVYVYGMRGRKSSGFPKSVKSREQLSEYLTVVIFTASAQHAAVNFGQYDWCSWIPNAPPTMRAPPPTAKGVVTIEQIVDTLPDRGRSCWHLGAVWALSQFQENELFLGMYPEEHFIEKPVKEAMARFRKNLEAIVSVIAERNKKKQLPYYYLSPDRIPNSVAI
Method: The compounds of the present invention were evaluated with respect to 5-lipoxygenase inhibition according to the Recombinant 5-Lipoxygenase Inhibition Assay described below.
Human 5-lipoxygenase expressed in E. coli as a soluble protein was prepared in the manner described by M. Noguchi et al., "Expression of Human 5-Lipoxygenase cDNA in E. coli," FEBS Letters, Vol. 249, No. 2, 267-270 (1989), which is incorporated herein by reference. The human 5-lipoxygenase was partially purified by ion exchange chromatography and stored in 50 mM Tris-HCl buffer (pH 8.1) containing 150 mM NaCl, 2 mM EDTA, 2 mM DTT, and 50% glycerol at -70° C. before use.
The following solutions were prepared as indicated: CaCl2 /ATP, 12.5 mM CaCl2 and 5 mM ATP in H2 O; arachidonic acid, 4 mM in ethanol; potassium phosphate buffer, 50 mM potassium phosphate and 0.1 mM EDTA, pH 7.2. Test compounds were first prepared at 10 mM in DMSO and further diluted to desirable concentrations with DMSO.
The assay was carried out in a quartz cuvette to which 15 μl CaCl2 /ATP, 7.5 μl arachidonic acid, 7.5 μl ethanol or test compound, and 710 μl potassium phosphate buffer, in that order, were added and mixed. The mixture was prewarmed to 25° C. The enzymatic reaction was started by adding 10 μl of 5-lipoxygenase enzyme (~0.2 mg protein), and the formation of the reaction product 5-HPETE/5-HETE at 25° C. for 8 minutes was determined by measuring the increase in the absorbance at 240 nm using a Beckman DU-7 spectrophotometer.
The results for this assay are expressed in terms of activity with respect to 5-lipoxygenase inhibition as an IC50 value (50% inhibitory concentration).

[2] = test system: LTB4 production by calcium ionophore stimulated human blood; test: Human Whole Blood LTB4 Assay (calcium ionophore stimulated LTB4 production); type: cell-based; settings: calcium ionophore A23187, LTB4
Method: (§1) (c) LTB4 and Thromboxane Production by Calcium Ionophore Stimulated Human Blood--Human Whole Blood LTB4 Assay
(§2) The compounds of the present invention were evaluated with respect to 5-lipoxygenase inhibition according to the Human Whole Blood LTB4 Assay described below.
(§3) Human whole blood was collected in heparin containing Vacutainer brand tubes. The blood was diluted with RPMI-1640 cell culture media [1:4] (Gibco, Grand Island, N.Y.) and 200 microliters were added per well in 96 well microtiter plates. Compounds of the present invention diluted in dimethylsulfoxide were added to the blood and allowed to incubate for 15 minutes at 37° C. in a humidified incubator. Calcium ionophore A23187 [20 mcg/ml final concentration, Sigma Chemical Co., St. Louis, Mo.] was added, and the incubation was continued for 10 minutes. The incubation was terminated by centrifugation [833 g, 10 minutes at 4° C.]. Supernatants were analyzed for LTB4 and thromboxane by commercially available enzyme-linked immunoassays [Caymen Chemical Co., Ann Arbor, Mich.]. Test compounds which inhibit 5-lipoxygenase in this assay inhibit the formation of LTB4 and cause reduced levels of this agent in the supernatant.
(§4) The results of this assay are expressed in terms of activity with respect to 5-lipoxygenase inhibition as an IC50 value (50% inhibitory concentration).

[3] = test system: Thromboxane production by calcium ionophore stimulated human blood; test: Human Whole Blood Assay, thromboxane production (calcium ionophore stimulated); type: cell-based; settings: calcium ionophore A23187, thromboxane
Method: as §1, §2, §3, §4

[4] = test system: TPA-induced ear inflammation (Mouse, Ear); test: Tetradecanoylphorbol Acetate (TPA) Assay (TPA-induced mouse ear inflammation); type: in vivo; settings: 50 mpk, ip + 120 minute; for TPA Edema (% Inhibition): ear thickness
Method: The compounds of the present invention were evaluated with respect to 5-lipoxygenase inhibition according to the Tetradecanoylphorbol Acetate (TPA) Assay which is described in Rao et al., "Comparative Evaluation of Arachidonic Acid (AA)--And Tetradecanoylphorbol Acetate (TPA)-Induced Dermal Inflammation." Inflammation, Vol. 17, No. 6, 723-741 (1993), which is incorporated herein by reference.
In this study, selective 5-lipoxygenase inhibitors, such as zileuton, MK-886, LTB4 and LTD4 receptor […] were evaluated in acute inflammatory responses elicited by the topical application of TPA to the ears of mice. The increases in edema and myeloperoxidase (MPO) were used as readouts of inflammatory responses.
Animals. Female BALB/c mice (17-25 g; Jackson Labs, Bar Barbor, Me.) or male Swiss Webster mice (Charles River, Portage, Mich.) were used in the studies. The animals were housed in a vivarium with a 12-hour lighting schedule (0600-1800 hours on) with free access to food and water. Housing and experimental procedures were conducted according to institutionally approved (Monsanto, St. Louis, Mo. and National Institute of Health) guidelines.
Drugs and Reagents. Hexadecyltrimethylammonium bromide (HTAB), and TPA were purchased from Sigma Chemical Co. (St. Louis, Mo.). Human polymorphonuclear leukocyte myeloperoxidase (20 units/mg protein) was obtained from Calbiochem (San Diego, Calif.). One unit of MPO was defined as the activity of the enzyme that oxidizes 1 μmol of hydrogen peroxide per minute at 25° C.
TPA Inflammation Model. […] Four hours following the application of TPA, increases in ear thickness were measured and ears were excised for MPO measurements.
Measurement of MPO. […] The rate of change of absorbance was monitored in kinetic mode by a plate reader (Molecular Devices, Menlo Park, Calif.). Levels of MPO in lavage samples were determined from the calibration curves using human neutrophil MPO as the reference standard. The levels of MPO were expressed as milliunits per ear. […]

IC50 [1]	IC50 [2]	IC50 [3]	Structure (SMILES)	TPA Edema (% Inhibition) [4]	TPA MPO (% Inhibition) ([4]; myeloperoxidase)
4.48 ± 0.36 µM	–	–	CC(C)(C)c1cc(SCCn2ccc3ncnc-3c2)cc(C(C)(C)C)c1O [Compound 8, 2,6-bis(1,1-dimethylethyl)-4-[[2-(5H-imidazo-[4,5-c]pyridin-5-yl)ethyl]thio]phenol Hydrate]	–	–
0.36 ± 0.07 µM	6.62 µM	> 39 µM	CC(C)(C)c1cc(SCCCn2cnc3ncccc32)cc(C(C)(C)C)c1O [Compound 19, 2,6-bis(1,1-dimethylethyl)-4-[[3-1H-imidazo[4,5-b]pyridin-1-yl)propyl]thio]-phenol Hydrate]	–	–
0.57 ± 0.07 µM	13.3 µM	50 µM	CC(C)(C)c1cc(SCCCn2ccc3ncnc-3c2)cc(C(C)(C)C)c1O [Compound 5, 2,6-bis(1,1-dimethylethyl)-4-[[3-(5H-imidazo-[4,5-c]pyridin-5-yl)propyl]thio]phenol]	42%	24%
0.32 ± 0.02 µM	–	–	CC(C)(C)c1cc(SCCCn2cnc3cccnc32)cc(C(C)(C)C)c1O [Compound 18, (2,6-bis(1,1-dimethylethyl)-4-[[3-(1H-imidazo[5,4-b]pyridin-1-yl)propyl]thio]phenol Hydrate]	–	–
0.34 ± 0.1 µM	–	–	CC(C)(C)c1cc(SCCCn2cnc3cnccc32)cc(C(C)(C)C)c1O [Compound 16, 2,6-bis(1,1-dimethylethyl)-4-[[3-(1H-imidazo[4,5-c]pyridin-1-yl)propyl]thio]phenol]	–	–
1.1 ± 0.23 µM	7.42 µM	37.3 µM	CC(C)(C)c1cc(SCC(O)Cn2ccc3ncnc-3c2)cc(C(C)(C)C)c1O (racemic) [Compound 27, (±) 2,6-bis(1,1-dimethylethyl)-4-[[2-hydroxy-3-(5H-imidazo[4,5-c]pyridin-5-yl]propylthio]phenol Hydrate]	46%	–
0.41 ± 0.02 µM	–	–	CC(C)(C)c1cc(SCCCCn2ccc3ncnc-3c2)cc(C(C)(C)C)c1O [Compound 14, 2,6-bis(1,1-dimethylethyl)-4-[[4-(5H-imidazo-[4,5-c]pyridin-5-yl)butyl]thiophenol Hydrate]	–	–

The next lines start with the compound.

Structure (SMILES)	IC50 [1]	IC50 [2]	IC50 [3]	TPA Edema (% Inhibition) [4]	TPA MPO (% Inhibition) ([4]; myeloperoxidase)
CC(C)(C)c1cc(SCCSc2nc3ccccc3o2)cc(C(C)(C)C)c1O [Compound 26, 2,6-bis(1,1-dimethylethyl)-4-[[2-[(1,3-benzoxazol-2-yl)thio]ethyl]thio]phenol Hydrate]	0.93 ± 0.16 µM	11.1 µM	9.1 µM	–	–
CC(C)(C)c1cc(SCCCn2ccc3ccccc32)cc(C(C)(C)C)c1O [Compound 24, 2,6-bis(1,1-dimethylethyl)-4-[[3-(1H-indol-1-yl)propyl]thio]phenol Hydrate]	0.48 ± 0.09 µM	–	–	–	–
CC(C)(C)c1cc(SCCCn2cnc3ccncc32)cc(C(C)(C)C)c1O [Compound 15, 2,6-bis(1,1-dimethylethyl)-4-[[3-(1H-imidazo[5,4-c]pyridin-1-yl]propyl]thio]phenol]	0.49 ± 0.04 µM	6.27 µM	14.4 µM	–	–
CC(C)(C)c1cc(SCCCn2cnc3ccccc32)cc(C(C)(C)C)c1O [Compound 21, 2,6-bis(1,1-dimethylethyl)-4-[[3-(1H-benzimidazol-1-yl)propyl]thio]phenol]	0.14 ± 0.02 µM	2.26 µM	18.6 µM	–	–
CC(C)(C)c1cc(SCc2nc3cccnc3[nH]2)cc(C(C)(C)C)c1O [Compound 29, 2,6-bis(1,1-dimethylethyl)-4-[[(3H-imidazo-[4,5-b]pyridin-2-yl)methyl]thio]phenol]	1.8 ± 0.3 µM	20.1 µM	50 µM	–	–
